# According to ChEMBL document CHEMBL5356971, “Optimization of the Antibacterial Spectrum and the Developability Profile of the Novel-Class Natural Product Corramycin” (J Med Chem, 2023):
# Numbered stars: 1 amine (or outer) side, 2 acyl side, 3 side chain; on linkers, the order of the positions; unused ones are H or OH. Square brackets hold non-standard residues; d marks the D form. Peptide text beside a SMILES is read from it. * marks the point of attachment. Ava(2S,3R-(OH)2,4S-OMe) = CO[C@@H](CN[*:1])[C@H](O)[C@H](O)C(=O)[*:2]; dHis(βS-OH,π-Me) = Cn1cncc1[C@@H](O)[C@@H](N)C(=O)O; Butanoyl(2R-OH,3S-OH) = C[C@H](O)[C@@H](O)C(=O)*; Val(3-OH) = CC(C)(O)[C@H](N)C(=O)O; NMeF = CN[C@@H](Cc1ccccc1)C(=O)O
# Assays:
# Acinetobacter baumannii [1] = experiment: Antibacterial activity against Acinetobacter baumannii ATCC 19606 assessed as reduction in microbial growth incubated for 20 to 22 hrs by CLSI based analysis; format: functional; conditions: time 20-22 hrs
# Klebsiella pneumoniae [2] = experiment: Antibacterial activity against Klebsiella pneumoniae ATCC 13883 assessed as reduction in microbial growth incubated for 20 to 22 hrs by CLSI based analysis; format: functional; conditions: time 20-22 hrs
# Escherichia coli [3] = experiment: Antibacterial activity against Escherichia coli ATCC 35218 infected in Swiss albino mouse model of Septicaemia infection assessed as log reduction in Septicaemia in blood at 10 mg/kg , iv preincubated for 4 hrs followed by bacterial infection and measured after 4 hrs post infection; format: functional; conditions: time 8 hrs
# [4] = Metabolic stability in mouse lung assessed as parent compound remaining measured after 1 hrs by UPLC-MS analysis; format: ADME, tissue-based; conditions: mouse lung, read-out: Stability
# Escherichia coli [5] = experiment: Antibacterial activity against Escherichia coli ATCC 35218 assessed as reduction in microbial growth incubated for 20 to 22 hrs by CLSI based analysis; format: functional; conditions: time 20-22 hrs
# [6] = Metabolic stability in mouse lung assessed as parent compound remaining measured after 4 hrs by UPLC-MS analysis; format: ADME, tissue-based; conditions: mouse lung, read-out: Stability
# [7] = Metabolic stability in mouse kidney assessed as parent compound remaining measured after 4 hrs by UPLC-MS analysis; format: ADME, tissue-based; conditions: read-out: Stability
# [8] = Metabolic stability in mouse kidney assessed as parent compound remaining measured after 1 hrs by UPLC-MS analysis; format: ADME, tissue-based; conditions: read-out: Stability
# HepG2 = experiment: Cytotoxicity against human HepG2 cells assessed as inhibition of cell growth at 30 uM incubated for 40 hrs by celltiterglo assay; format: functional
# Klebsiella pneumoniae [9] = experiment: Antimicrobial activity against Klebsiella pneumoniae assessed as microbial growth inhibition; format: functional
# Escherichia coli [10] = experiment: Antibacterial activity against Escherichia coli ATCC 35218 infected in Swiss albino mouse model of Septicaemia infection assessed as log reduction in Septicaemia in blood at 20 mg/kg , iv preincubated for 4 hrs followed by bacterial infection and measured after 4 hrs post infection; format: functional; conditions: time 8 hrs
# Pseudomonas aeruginosa = experiment: Antimicrobial activity against Pseudomonas aeruginosa assessed as microbial growth inhibition; format: functional
# [11] = biological target: Voltage-dependent T-type calcium channel subunit alpha-1G (Homo sapiens, UniProt O43497); experiment: Inhibition of Cav3.1 (unknown origin)
# [12] = biological target: Sodium channel protein type 5 subunit alpha (Homo sapiens, UniProt Q14524); experiment: Inhibition of Nav1.5 (unknown origin)
# [13] = Metabolic stability in mouse lung assessed as M1 metabolite formation measured upto 4 hrs by UPLC-MS analysis; format: ADME, tissue-based
# [14] = Permeability of compound in human Caco-2 cells; format: ADME, cell-based; conditions: read-out: permeability
# [15] = Aqueous solubility of compound in PBS at pH 7.4; format: physicochemical
# [16] = Lipophilicity, log D of the compound at pH 7.4; format: physicochemical; conditions: buffer
# [17] = biological target: Sodium channel protein type 2 subunit alpha (Homo sapiens, UniProt Q99250); experiment: Inhibition of Nav1.2 (unknown origin)
# Escherichia coli [18] = experiment: Antibacterial activity against wild type Escherichia coli ATCC 35218 assessed as reduction in microbial growth incubated for 20 to 22 hrs by CLSI based analysis; format: functional; conditions: time 20-22 hrs
# [19] = biological target: Voltage-gated inwardly rectifying potassium channel KCNH2 (Homo sapiens, UniProt Q12809); experiment: Inhibition of hERG; format: toxicity
# Klebsiella pneumoniae [20] = experiment: Antibacterial activity against Klebsiella pneumoniae ATCC 13883 harboring SbmA assessed as reduction in microbial growth incubated for 20 to 22 hrs by CLSI based analysis; format: functional; conditions: time 20-22 hrs
# [21] = biological target: T1, A-type voltage-gated potassium channel KCND3 (Homo sapiens, UniProt Q9UK17); experiment: Inhibition of Kv4.3 (unknown origin)
# T1 sequence (Q9UK17 whole entry): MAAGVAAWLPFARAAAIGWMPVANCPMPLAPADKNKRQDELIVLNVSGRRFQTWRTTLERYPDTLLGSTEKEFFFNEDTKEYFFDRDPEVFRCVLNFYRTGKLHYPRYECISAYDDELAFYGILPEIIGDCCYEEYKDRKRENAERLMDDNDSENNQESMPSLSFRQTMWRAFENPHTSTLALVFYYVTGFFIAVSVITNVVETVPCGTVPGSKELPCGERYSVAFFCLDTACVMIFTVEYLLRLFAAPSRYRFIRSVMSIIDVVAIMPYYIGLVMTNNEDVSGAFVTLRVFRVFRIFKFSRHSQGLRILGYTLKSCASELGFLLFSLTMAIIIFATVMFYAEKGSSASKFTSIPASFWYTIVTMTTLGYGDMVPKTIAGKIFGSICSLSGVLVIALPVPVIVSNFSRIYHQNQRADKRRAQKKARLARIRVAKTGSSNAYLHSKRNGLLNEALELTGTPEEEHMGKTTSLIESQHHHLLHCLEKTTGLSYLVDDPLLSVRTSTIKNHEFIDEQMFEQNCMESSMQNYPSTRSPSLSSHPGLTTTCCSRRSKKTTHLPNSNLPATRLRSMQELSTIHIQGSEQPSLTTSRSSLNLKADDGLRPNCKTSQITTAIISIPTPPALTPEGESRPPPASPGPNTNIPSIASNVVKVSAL
# Klebsiella pneumoniae [22] = experiment: Antibacterial activity against wild type Klebsiella pneumoniae ATCC 13883 assessed as reduction in microbial growth incubated for 20 to 22 hrs by CLSI based analysis; format: functional; conditions: time 20-22 hrs
# Escherichia coli [23] = experiment: Antibacterial activity against Escherichia coli D21 assessed as reduction in microbial growth incubated for 20 to 22 hrs by CLSI based analysis; format: functional; conditions: time 20-22 hrs
# Acinetobacter baumannii [24] = experiment: Antibacterial activity against wild type Acinetobacter baumannii ATCC 19606 assessed as reduction in microbial growth incubated for 20 to 22 hrs by CLSI based analysis; format: functional; conditions: time 20-22 hrs
# Escherichia coli [25] = experiment: Antibacterial activity against Escherichia coli ATCC 35218 harboring SbmA assessed as reduction in microbial growth incubated for 20 to 22 hrs by CLSI based analysis; format: functional; conditions: time 20-22 hrs
# [26] = Metabolic stability in mouse kidney assessed as M1 metabolite formation measured upto 4 hrs by UPLC-MS analysis; format: ADME, tissue-based
# Escherichia coli [27] = experiment: Antibacterial activity against Escherichia coli infected in mouse model assessed as mouse survival at 20 mg/kg iv; format: functional
# Escherichia coli [28] = experiment: Antimicrobial activity against Escherichia coli assessed as microbial growth inhibition; format: functional
# Escherichia coli [29] = experiment: Antibacterial activity against Escherichia coli D22 assessed as reduction in microbial growth incubated for 20 to 22 hrs by CLSI based analysis; format: functional; conditions: time 20-22 hrs
# [30] = Metabolic stability in mouse kidney assessed as M2 metabolite formation measured upto 4 hrs by UPLC-MS analysis; format: ADME, tissue-based
# Sodium channel protein type 5 subunit alpha, sequence (Q14524 whole entry): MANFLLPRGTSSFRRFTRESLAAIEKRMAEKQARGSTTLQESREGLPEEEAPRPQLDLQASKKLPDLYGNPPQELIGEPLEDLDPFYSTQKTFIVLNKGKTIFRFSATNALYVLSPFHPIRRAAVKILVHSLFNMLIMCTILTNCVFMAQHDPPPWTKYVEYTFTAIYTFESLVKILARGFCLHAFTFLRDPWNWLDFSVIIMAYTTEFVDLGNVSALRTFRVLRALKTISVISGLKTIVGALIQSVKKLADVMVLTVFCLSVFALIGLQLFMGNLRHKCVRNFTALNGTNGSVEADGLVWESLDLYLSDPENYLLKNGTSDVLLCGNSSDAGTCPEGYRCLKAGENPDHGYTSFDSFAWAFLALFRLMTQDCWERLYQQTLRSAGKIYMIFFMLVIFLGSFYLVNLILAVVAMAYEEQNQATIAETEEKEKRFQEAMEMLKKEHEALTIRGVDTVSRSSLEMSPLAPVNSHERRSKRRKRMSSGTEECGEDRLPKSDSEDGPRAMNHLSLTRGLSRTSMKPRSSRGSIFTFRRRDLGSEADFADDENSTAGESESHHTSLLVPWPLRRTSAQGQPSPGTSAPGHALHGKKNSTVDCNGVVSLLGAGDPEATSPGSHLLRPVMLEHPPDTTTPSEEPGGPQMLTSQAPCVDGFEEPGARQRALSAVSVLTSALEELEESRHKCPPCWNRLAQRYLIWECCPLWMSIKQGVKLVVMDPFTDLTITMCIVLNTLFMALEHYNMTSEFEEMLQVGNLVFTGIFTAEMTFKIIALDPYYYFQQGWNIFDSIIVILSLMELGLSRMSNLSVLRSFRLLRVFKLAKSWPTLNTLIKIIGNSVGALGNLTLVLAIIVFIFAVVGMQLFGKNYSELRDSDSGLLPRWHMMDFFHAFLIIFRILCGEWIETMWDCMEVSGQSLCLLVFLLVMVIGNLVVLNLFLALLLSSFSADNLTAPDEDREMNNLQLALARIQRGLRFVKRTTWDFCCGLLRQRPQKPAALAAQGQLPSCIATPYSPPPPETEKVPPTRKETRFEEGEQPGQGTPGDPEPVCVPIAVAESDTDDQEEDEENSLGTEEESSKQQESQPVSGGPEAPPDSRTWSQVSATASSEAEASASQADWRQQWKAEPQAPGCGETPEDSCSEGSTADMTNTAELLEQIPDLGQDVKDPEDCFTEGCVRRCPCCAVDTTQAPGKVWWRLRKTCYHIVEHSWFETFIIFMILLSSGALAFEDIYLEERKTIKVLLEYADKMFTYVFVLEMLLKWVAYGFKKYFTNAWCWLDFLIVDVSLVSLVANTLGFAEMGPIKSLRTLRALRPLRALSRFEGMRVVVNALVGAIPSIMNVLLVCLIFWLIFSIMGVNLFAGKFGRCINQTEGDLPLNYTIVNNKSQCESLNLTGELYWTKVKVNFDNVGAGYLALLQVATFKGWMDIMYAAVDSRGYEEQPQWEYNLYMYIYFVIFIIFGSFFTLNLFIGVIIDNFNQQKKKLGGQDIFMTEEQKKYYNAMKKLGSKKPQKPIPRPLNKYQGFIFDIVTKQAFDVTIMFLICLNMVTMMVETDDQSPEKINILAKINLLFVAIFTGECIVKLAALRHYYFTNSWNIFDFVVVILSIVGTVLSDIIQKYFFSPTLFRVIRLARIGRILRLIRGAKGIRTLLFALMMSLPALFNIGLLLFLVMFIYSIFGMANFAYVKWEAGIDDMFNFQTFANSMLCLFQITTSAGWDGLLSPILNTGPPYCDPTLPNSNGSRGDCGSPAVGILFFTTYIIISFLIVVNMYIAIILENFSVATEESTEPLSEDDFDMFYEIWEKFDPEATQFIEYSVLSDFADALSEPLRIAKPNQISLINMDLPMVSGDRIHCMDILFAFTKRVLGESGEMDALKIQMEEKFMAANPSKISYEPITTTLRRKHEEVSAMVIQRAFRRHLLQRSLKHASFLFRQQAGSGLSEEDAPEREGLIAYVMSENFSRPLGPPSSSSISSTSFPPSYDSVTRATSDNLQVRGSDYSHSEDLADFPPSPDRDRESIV
# Voltage-gated inwardly rectifying potassium channel KCNH2, sequence (Q12809 whole entry): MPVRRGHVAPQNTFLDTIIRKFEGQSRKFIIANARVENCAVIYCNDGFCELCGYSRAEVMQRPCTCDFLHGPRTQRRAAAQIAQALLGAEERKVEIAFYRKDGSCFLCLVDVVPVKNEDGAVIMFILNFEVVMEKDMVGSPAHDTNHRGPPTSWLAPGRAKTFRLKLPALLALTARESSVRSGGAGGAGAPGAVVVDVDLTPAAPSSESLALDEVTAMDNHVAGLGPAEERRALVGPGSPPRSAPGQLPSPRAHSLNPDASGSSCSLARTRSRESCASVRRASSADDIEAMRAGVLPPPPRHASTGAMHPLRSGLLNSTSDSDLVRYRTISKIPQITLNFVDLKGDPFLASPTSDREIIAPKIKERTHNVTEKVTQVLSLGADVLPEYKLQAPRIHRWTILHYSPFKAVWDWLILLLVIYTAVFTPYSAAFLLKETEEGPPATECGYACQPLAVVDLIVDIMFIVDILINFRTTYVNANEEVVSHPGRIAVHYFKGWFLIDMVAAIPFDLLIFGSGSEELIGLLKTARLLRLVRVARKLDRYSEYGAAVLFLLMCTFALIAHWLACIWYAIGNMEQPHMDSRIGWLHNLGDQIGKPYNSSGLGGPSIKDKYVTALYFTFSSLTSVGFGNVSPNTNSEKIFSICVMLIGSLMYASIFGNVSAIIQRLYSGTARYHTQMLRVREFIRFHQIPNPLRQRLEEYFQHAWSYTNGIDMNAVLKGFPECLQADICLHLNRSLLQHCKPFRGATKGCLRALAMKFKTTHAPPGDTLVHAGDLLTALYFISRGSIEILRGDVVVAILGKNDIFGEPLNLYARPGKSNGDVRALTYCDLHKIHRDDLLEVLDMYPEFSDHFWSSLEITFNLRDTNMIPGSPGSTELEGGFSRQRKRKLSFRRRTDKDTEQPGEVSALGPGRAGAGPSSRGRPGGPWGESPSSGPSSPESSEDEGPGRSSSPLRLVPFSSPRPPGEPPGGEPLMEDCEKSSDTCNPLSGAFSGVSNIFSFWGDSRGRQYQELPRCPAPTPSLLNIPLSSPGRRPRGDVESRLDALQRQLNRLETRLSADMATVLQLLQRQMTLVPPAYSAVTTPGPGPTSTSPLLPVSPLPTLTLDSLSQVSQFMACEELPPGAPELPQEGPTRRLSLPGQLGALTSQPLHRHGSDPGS
# Sodium channel protein type 2 subunit alpha, sequence (Q99250 whole entry): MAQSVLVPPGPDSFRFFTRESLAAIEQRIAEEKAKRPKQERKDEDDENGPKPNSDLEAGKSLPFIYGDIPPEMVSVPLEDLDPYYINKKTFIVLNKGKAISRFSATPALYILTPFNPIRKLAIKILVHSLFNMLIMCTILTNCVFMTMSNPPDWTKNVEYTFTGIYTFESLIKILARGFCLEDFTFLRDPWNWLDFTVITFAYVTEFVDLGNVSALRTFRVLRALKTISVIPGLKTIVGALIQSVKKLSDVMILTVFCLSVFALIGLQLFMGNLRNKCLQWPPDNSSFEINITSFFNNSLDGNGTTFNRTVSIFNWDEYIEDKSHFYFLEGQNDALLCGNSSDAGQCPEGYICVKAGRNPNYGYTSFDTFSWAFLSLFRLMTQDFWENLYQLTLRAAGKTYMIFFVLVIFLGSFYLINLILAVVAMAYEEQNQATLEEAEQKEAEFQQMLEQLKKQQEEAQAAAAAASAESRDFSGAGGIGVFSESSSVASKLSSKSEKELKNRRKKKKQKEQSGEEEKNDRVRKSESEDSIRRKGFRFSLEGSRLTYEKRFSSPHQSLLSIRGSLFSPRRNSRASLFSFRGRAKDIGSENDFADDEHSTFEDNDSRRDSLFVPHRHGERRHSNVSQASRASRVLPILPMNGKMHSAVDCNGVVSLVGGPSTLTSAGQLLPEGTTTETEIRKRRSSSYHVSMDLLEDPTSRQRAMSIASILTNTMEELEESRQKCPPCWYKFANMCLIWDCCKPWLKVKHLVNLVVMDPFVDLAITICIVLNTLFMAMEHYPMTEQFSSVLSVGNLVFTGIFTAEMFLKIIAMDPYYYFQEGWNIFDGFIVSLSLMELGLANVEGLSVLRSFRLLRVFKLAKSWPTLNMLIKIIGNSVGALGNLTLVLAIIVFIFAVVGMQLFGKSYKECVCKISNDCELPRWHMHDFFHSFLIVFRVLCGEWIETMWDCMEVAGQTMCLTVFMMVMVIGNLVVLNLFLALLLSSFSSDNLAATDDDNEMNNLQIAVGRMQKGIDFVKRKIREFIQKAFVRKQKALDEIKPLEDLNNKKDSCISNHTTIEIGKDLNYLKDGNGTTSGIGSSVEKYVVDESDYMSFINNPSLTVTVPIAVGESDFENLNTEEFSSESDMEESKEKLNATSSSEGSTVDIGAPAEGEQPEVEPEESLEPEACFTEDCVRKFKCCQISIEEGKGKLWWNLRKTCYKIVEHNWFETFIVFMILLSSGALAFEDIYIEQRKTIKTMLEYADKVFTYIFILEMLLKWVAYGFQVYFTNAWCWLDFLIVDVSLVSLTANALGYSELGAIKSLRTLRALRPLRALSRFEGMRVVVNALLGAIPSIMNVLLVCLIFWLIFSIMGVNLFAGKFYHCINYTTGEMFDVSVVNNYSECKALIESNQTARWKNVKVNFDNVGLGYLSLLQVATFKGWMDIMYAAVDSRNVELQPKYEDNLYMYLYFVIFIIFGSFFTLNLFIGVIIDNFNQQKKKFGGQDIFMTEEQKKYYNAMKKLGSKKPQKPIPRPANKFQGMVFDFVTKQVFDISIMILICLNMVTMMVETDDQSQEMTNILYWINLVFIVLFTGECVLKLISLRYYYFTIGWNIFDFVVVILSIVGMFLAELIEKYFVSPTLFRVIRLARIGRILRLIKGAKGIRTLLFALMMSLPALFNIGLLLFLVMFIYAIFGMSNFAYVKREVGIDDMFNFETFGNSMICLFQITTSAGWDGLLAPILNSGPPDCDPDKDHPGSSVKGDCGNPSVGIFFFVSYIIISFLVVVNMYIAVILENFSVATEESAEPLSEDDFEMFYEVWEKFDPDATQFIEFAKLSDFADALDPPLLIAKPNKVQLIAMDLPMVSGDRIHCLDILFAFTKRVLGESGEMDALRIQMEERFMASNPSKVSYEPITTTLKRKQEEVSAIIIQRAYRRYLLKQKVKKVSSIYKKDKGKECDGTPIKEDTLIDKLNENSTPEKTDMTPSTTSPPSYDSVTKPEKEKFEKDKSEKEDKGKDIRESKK
smiles,measurement,setting,value
CO[C@@H](CNC(=O)[C@H](NC(=O)[C@H](O)[C@H](C)O)[C@H](O)c1cncn1C)[C@H](O)[C@H](O)C(=O)N(C)[C@@H](Cc1ccccc1)C(=O)NCC(=O)N[C@H](C(=O)N[C@@H](CO)C(=O)N[C@H](C(=O)N[C@H](C(=O)N[C@@H](CO)C(=O)O)C(C)(C)C)C(C)(C)O)C(C)(C)O,MIC,Acinetobacter baumannii [1],> 32 µg/mL
same,MIC,Klebsiella pneumoniae [2],2 µg/mL
same,Activity,Escherichia coli [3],-5.9 log10CFU
same,remaining at 1 h,[4],105%
same,MIC,Escherichia coli [5],2 µg/mL
same,remaining at 4 h,[6],104%
same,remaining at 4 h,[7],72%
same,remaining at 1 h,[8],104%
"CO[C@@H](CNC(=O)[C@H](NC(=O)[C@H](O)[C@H](C)O)[C@H](O)c1cncn1C)[C@H](O)[C@H](O)C(=O)N(C)[C@@H](Cc1ccccc1)C(=O)NCC(=O)N[C@H](C(=O)N[C@@H](CO)C(=O)N[C@H](C(=O)N[C@@H](CC(C)C)C(=O)N[C@@H](CO)C(=O)O)C(C)(C)O)C(C)(C)O ({Butanoyl(2R-OH,3S-OH)}-[dHis(βS-OH,π-Me)][Ava(2S,3R-(OH)2,4S-OMe)][NMeF]G[Val(3-OH)]S[Val(3-OH)]LS-OH)",MIC,Acinetobacter baumannii [1],> 32 µg/mL
same,MIC,Klebsiella pneumoniae [2],16 µg/mL
same,inhibition at 30 µM,HepG2,0%
same,MIC,Klebsiella pneumoniae [9],≥ 64 µg/mL
same,Activity,Escherichia coli [10],-3.3 log10CFU
same,MIC,Pseudomonas aeruginosa,> 64 µg/mL
same,IC50,[11],> 30 µM
same,IC50,[12],> 30 µM
same,Drug metabolism,[13],Metabolite_Detected
same,Papp,[14],< 10 ×10⁻⁶ cm/s
same,solubility,[15],2800 µg/mL
same,logD,[16],0.68
same,IC50,[17],> 30 µM
same,remaining at 1 h,[4],7%
same,MIC,Escherichia coli [18],4 µg/mL
same,MIC,Escherichia coli [5],4 µg/mL
same,remaining at 4 h,[6],1%
same,IC50,[19],> 30 µM
same,MIC,Klebsiella pneumoniae [20],16 µg/mL
same,IC50,[21],> 30 µM
same,MIC,Klebsiella pneumoniae [22],16 µg/mL
same,MIC,Escherichia coli [23],4 µg/mL
same,MIC,Acinetobacter baumannii [24],> 32 µg/mL
same,remaining at 4 h,[7],6%
same,remaining at 1 h,[8],41%
same,MIC,Escherichia coli [25],4 µg/mL
same,Drug metabolism,[26],Metabolite_Detected
same,Activity,Escherichia coli [27],<=60%
same,MIC,Escherichia coli [28],1 µg/mL
same,MIC,Escherichia coli [29],0.25 µg/mL
same,Drug metabolism,[30],Metabolite_Detected
